Measured values from patent publication US20240033263A1, “COMBINATION OF ALDOSE REDUCTASE INHIBITORS AND PROBENECID FOR THE TREATMENT OF DIABETIC COMPLICATIONS” (priority 2021, published 2024).
Read-outs that look alike come from different tables or passages of the source.

What was measured:
[1] = cited from earlier work
[2] = humans, oral route; cited from earlier work
[3] = water; cited from earlier work
[4] = humans; cited from earlier work
[5] = ARI i.v. with probenecid i.p., Sprague-Dawley rats; cited from earlier work
[6] = design: species or system humans; conditions: in vivo
From the text: AT-001 is in clinical development by Applied Therapeutics for treatment of diabetic cardiomyopathy (American Heart Association 2019 Abstract Mo-2278). […] So, AT-001 would be between approximately 7-12 times shorter lived in human plasma compared to the reported human plasma half-life of zopolrestat (vide infra).

[7] = humans, oral, SAD and MAD studies; cited from earlier work
[8] = biological target: T1, transient receptor potential vanilloid 2 (TRPV2) channel (Homo sapiens, UniProt Q9Y5S1); conditions: cited from earlier work
T1 sequence (Q9Y5S1 1-764): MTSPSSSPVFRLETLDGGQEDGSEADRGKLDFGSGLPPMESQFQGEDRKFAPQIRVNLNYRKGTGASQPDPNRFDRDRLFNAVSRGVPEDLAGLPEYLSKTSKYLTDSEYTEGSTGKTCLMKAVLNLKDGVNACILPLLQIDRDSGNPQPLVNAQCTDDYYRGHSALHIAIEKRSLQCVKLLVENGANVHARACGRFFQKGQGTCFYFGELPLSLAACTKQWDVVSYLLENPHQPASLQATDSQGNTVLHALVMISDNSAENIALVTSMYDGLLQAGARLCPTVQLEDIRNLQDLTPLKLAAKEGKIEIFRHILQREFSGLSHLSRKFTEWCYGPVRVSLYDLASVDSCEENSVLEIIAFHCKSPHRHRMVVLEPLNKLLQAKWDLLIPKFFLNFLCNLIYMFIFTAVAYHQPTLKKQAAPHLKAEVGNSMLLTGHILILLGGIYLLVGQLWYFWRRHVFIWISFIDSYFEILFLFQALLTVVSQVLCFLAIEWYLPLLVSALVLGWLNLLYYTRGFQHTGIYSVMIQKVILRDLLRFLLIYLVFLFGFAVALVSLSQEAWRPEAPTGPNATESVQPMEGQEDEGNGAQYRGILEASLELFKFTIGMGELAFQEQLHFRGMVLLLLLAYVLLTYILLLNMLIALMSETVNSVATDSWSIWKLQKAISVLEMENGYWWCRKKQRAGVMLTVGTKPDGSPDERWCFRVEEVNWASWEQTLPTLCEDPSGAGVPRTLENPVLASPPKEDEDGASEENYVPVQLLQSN

[9] = biological target: T2, TRPV2 (Mus musculus, UniProt Q9WTR1); conditions: cited from earlier work
T2 construct: TRPV2 is expressed in the murine heart; host or cells: murine heart (in vitro and in vivo)
T2 sequence (Q9WTR1 1-756): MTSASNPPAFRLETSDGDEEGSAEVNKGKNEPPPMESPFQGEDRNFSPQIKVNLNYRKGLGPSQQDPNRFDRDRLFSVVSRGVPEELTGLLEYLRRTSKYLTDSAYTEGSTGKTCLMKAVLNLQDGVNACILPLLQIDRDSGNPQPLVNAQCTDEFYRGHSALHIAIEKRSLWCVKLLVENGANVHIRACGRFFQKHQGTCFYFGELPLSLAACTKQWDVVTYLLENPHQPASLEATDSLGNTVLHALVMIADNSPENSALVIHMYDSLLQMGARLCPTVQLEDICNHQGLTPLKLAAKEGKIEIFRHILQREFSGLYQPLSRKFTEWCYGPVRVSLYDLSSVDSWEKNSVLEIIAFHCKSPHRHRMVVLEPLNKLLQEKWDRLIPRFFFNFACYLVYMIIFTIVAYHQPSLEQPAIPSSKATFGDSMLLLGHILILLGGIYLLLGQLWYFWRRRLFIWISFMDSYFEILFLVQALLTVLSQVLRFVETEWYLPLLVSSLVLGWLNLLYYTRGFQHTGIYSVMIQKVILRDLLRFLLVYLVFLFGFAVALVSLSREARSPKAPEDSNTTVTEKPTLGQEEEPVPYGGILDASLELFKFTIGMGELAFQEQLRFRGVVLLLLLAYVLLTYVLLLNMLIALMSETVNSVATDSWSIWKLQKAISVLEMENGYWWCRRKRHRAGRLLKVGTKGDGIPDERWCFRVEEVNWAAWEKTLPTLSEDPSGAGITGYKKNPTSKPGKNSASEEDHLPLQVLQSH

[10] = animal model, cited from earlier work
[11] = non-diabetic patients with heart failure with reduced ejection fraction; cited from earlier work
[12] = mouse model of peripartum cardiomyopathy; cited from earlier work

SMILES: O=C(O)Cc1nn(Cc2nc3cc(C(F)(F)F)ccc3s2)c(=O)c2ccccc12 [zopolrestat]
- resting diastolic filling rates ([1]; after 1 year of treatment, either group): no change
- exercise LVEF ([1]; after 1 year of zopolrestat treatment, P 0.001): increases
- left ventricular stroke volume ([1]; after 1 year of zopolrestat treatment, P 0.004): increases
- resting left ventricular ejection fraction (LVEF) ([1]; after 1 year of zopolrestat treatment, P 0.02): increases
- cardiac output ([1]; after 1 year of zopolrestat treatment, P 0.03): increases
- plasma half-life [2]: 27.5 h

SMILES: CCCN(CCC)S(=O)(=O)c1ccc(C(=O)[O-])cc1.[Na+] [sodium salt of probenecid]
- solubility [3]: 77 mg/mL

SMILES: CC(/C=C1\SC(=S)N(CC(=O)O)C1=O)=C\c1ccccc1 [Epalrestat]
- plasma half-life [4]: relatively short

SMILES: O=C(O)CNS(=O)(=O)c1ccc(NC(=O)c2ccccc2)cc1 [N-[4-(benzoylaminophenyl)sulfonyl]glycine]
- plasma profiles and pharmacokinetic parameters (AUC, clearance, mean residence time, volume of distribution) [5]: did not alter

SMILES: O=C(O)Cc1nn(Cc2nc3cc(C(F)(F)F)ccc3s2)c(=O)c2nccnc12 [AT-001]
- times shorter lived in human plasma compared to zopolrestat [6]: 7-12 times
- median time of maximum concentration (Tmax) [7]: 1.75 to 3.38 h
- plasma half-life [7]: 1.74 to 3.38 h

SMILES: CCCN(CCC)S(=O)(=O)c1ccc(C(=O)O)cc1 [probenecid, 4-(dipropylsulfamoyl)benzoic acid]
- agonism of TRPV2 channel [8]: potent agonist
- inotropic response ([9]; both in vitro and in vivo): positive inotropic response
- cytosolic calcium (Ca2+) concentration ([9]; murine heart, TRPV2 activated with probenecid): increases
- apoptotic or arrhythmic pathways [10]: does not elicit
- myocardial contractility ([10]; via increased calcium cycling on a beat-to-beat basis): increases
- cardiac function [11]: improve cardiac function
- outcomes [12]: improves outcomes
